Data published in US5738998A, “Compositions and methods for diagnosing schizophrenia” (priority 1995, dated 1998).

System: Chinese hamster ovary cells without the D4 receptor
Experiment: [35S]GTPγS binding to G proteins in CHO cells without the D4 receptor
Assay type: cell-based
Conditions: CHO cells without the D4 receptor (FIG. 5B)
Excerpt: FIGS. 5A and 5B illustrate graphic representations of the effect of cycloleucine on spontaneous G protein binding of [^35 S]GTPγS.

In the case of `NC1(C(=O)O)CCCC1` [cycloleucine], the “spontaneous [35S]GTPγS binding” value is reported as “inability”.
